# Source: ChEMBL document CHEMBL3352018 (J Med Chem, 2014)
# The source made the active and inactive calls. The calls are words filed in the database; no cut-off is given here.
# Assays:
# Type in all cases: cell-based
# [1] = biological target: T1, Sodium-dependent neutral amino acid transporter B(0)AT2 (Homo sapiens, UniProt Q9H2J7); assay: Inhibition of eGFP-tagged human B0AT2 expressed in HEK293 cells measured within 10 mins by [3H]proline uptake assay
# T1 sequence (Q9H2J7 whole entry): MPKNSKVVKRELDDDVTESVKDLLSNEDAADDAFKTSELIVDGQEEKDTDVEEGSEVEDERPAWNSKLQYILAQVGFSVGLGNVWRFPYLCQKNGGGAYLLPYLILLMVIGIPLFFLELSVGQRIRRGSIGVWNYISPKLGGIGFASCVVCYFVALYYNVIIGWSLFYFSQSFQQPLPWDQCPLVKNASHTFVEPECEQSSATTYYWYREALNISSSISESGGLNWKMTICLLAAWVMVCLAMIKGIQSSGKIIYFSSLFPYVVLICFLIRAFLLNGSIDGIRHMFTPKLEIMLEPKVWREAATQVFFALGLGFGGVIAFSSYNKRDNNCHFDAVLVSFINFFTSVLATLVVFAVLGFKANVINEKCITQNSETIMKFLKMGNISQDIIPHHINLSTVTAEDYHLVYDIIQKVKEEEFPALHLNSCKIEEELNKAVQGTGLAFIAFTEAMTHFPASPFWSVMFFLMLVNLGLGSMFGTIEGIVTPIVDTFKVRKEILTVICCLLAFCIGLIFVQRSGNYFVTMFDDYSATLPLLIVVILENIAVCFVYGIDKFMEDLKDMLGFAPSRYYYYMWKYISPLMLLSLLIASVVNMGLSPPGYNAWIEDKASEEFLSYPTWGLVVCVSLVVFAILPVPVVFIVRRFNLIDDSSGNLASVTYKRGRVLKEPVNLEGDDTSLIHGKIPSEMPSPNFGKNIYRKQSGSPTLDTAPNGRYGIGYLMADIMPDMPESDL
# Histamine H1 receptor = Histamine H1 receptor (Homo sapiens, UniProt P35367); assay: Displacement of [3H]mepyramine from human histamine H1 receptor expressed in Sf9 cells by scintillation counting method
# Sequence of Histamine H1 receptor (P35367 whole entry): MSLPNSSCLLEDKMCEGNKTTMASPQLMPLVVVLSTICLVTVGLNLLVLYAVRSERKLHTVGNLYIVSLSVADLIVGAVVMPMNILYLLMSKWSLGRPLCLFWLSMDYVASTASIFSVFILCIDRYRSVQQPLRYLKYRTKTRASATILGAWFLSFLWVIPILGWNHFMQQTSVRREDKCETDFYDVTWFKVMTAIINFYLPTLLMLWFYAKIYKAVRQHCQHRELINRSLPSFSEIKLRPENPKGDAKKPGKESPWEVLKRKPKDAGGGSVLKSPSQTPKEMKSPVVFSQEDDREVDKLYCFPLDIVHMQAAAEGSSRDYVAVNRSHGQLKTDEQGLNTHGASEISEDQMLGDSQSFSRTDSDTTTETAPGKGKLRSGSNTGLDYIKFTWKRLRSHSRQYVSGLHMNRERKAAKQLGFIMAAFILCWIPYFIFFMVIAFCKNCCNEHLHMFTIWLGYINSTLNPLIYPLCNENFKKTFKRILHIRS
# [2] = biological target: T2, Sodium-dependent neutral amino acid transporter B(0)AT2 (Homo sapiens) (UniProt Q9H2J7); assay: Inhibition of eGFP-tagged human B0AT2 expressed in HEK293 cells at 5 mM measured within 10 mins by [3H]proline uptake assay
# T2 sequence (whole entry): T1 sequence (Q9H2J7 whole entry)
# [3] = biological target: T2, Sodium-dependent neutral amino acid transporter B(0)AT2 (Homo sapiens); assay: Inhibition of eGFP-tagged human B0AT2 expressed in HEK293 cells assessed as reduction in proline-induced inward current at 100 uM by patch clamp assay
# [4] = biological target: T2, Sodium-dependent neutral amino acid transporter B(0)AT2 (Homo sapiens); assay: Activation of eGFP-tagged human B0AT2 expressed in HEK293 cells assessed as induction of inward current at 100 uM by patch clamp assay
# [5] = biological target: T2, Sodium-dependent neutral amino acid transporter B(0)AT2 (Homo sapiens); assay: Reversible inhibition of eGFP-tagged human B0AT2 expressed in HEK293 cells assessed as reduction in proline-induced inward current at 100 uM measured post drug wash out by patch clamp assay
IC50 [1] [µM],SMILES,other results
10.8,CC(C)CC(=O)N1CCC(=C2c3ccc(Cl)cc3CCc3cccnc32)CC1,Ki (Histamine H1 receptor): 0.289 µM
7.7,CC(C)C[C@@H](N)C(=O)N1CCC(=C2c3ccc(Cl)cc3CCc3cccnc32)CC1,Ki (Histamine H1 receptor): 4.65 µM
> 80,O=C(Oc1ccccc1)N1CCC(=C2c3ccc(Cl)cc3CCc3cccnc32)CC1,–
17.6,CCOC(=O)N1CCC(=C2c3ccc(Cl)cc3CCc3cc(O)cnc32)CC1,–
5.7,O=C(CC1CCCCC1)N1CCC(=C2c3ccc(Cl)cc3CCc3cccnc32)CC1,Ki (Histamine H1 receptor): 0.441 µM
> 40,Cc1cncc(CN2CCC(=C3c4ccc(Cl)cc4CCc4cccnc43)CC2)c1 [RUPATADINE],–
> 80,CCOC(=O)N1CCC(=C2c3ccc(Cl)cc3CCc3ccc(C#N)nc32)CC1,–
4,CCOC(=O)N1CCC(=C2c3ccc(Cl)cc3CCc3cccnc32)CC1 [LORATADINE],inhibition [3]: Active; Activity [4]: inactive; inhibition [5]: Active
18.3,CCOC(=O)N1CCC(=C2c3ccc(Cl)cc3CCc3c(CO)ccnc32)CC1,–
36,CCC(=O)N1CCC(=C2c3ccc(Cl)cc3CCc3cccnc32)CC1,–
41.5,CC(C)C(=O)N1CCC(=C2c3ccc(Cl)cc3CCc3cccnc32)CC1,–
> 80,CC(C)(C)OC(=O)N1CCC(=C2c3ccc(Cl)cc3CCc3cccnc32)CC1,–

# More lines, now with the values behind:
SMILES,IC50 [1] [µM],other results
CCSC(=O)N1CCC(=C2c3ccc(Cl)cc3CCc3cccnc32)CC1,5.3,–
COCC(=O)N1CCC(=C2c3ccc(Cl)cc3CCc3cccnc32)CC1,26.4,–
CC(C)COC(=O)N1CCC(=C2c3ccc(Cl)cc3CCc3cccnc32)CC1,7.8,Ki (Histamine H1 receptor): 1.27 µM
CCOC(=O)N1CCC(=C2c3ccc(Cl)cc3CCc3ccc(CO)nc32)CC1,> 80,–
O=C(Cc1ccccc1)N1CCC(=C2c3ccc(Cl)cc3CCc3cccnc32)CC1,16.1,–
NC1(C(=O)O)CC2CCC1C2 (stereo unspecified),–,inhibition [2]: 80%
NCC(=O)N1CCC(=C2c3ccc(Cl)cc3CCc3cccnc32)CC1,22.9,–
CCOC(=O)N1CCC(=C2c3ccc(Cl)cc3CCc3c(C#N)ccnc32)CC1,> 80,–
CCOC(=O)N1CC=C(C2c3ccc(Cl)cc3CCc3cccnc32)CC1 (stereo unspecified),14.8,–
CCOC(=O)N1CCC(=C2c3ccc(Cl)cc3CCc3cc(OC)cnc32)CC1,4.5,Ki (Histamine H1 receptor): 1.95 µM
CC(=O)N1CCC(=C2c3ccc(Cl)cc3CCc3cccnc32)CC1 [SCH-37370],54.8,–
CCCCC(=O)N1CCC(=C2c3ccc(Cl)cc3CCc3cccnc32)CC1,3.4,Ki (Histamine H1 receptor): 0.147 µM
Clc1ccc2c(c1)CCc1cccnc1C2=C1CCNCC1 [DESLORATADINE],172,–
O=C(OCc1ccccc1)N1CCC(=C2c3ccc(Cl)cc3CCc3cccnc32)CC1,> 80,–
CCCC(=O)N1CCC(=C2c3ccc(Cl)cc3CCc3cccnc32)CC1,4.9,Ki (Histamine H1 receptor): 0.171 µM
CN1CCC(=C2c3ccc(Cl)cc3CCc3cccnc32)CC1,> 80,–
NCCC(=O)N1CCC(=C2c3ccc(Cl)cc3CCc3cccnc32)CC1,18.7,–
CCCOC(=O)N1CCC(=C2c3ccc(Cl)cc3CCc3cccnc32)CC1,4.6,–
COC(=O)N1CCC(=C2c3ccc(Cl)cc3CCc3cccnc32)CC1,19.6,–
C/C=C/C(=O)N1CCC(=C2c3ccc(Cl)cc3CCc3cccnc32)CC1,5,Ki (Histamine H1 receptor): 0.153 µM
CCOC(=O)N1CCC(=C2c3ccc(Cl)cc3CCc3ccc(C(=O)OC)nc32)CC1,12.4,Ki (Histamine H1 receptor): > 10 µM
CCCCCC(=O)N1CCC(=C2c3ccc(Cl)cc3CCc3cccnc32)CC1,5.2,–
CCCS(=O)(=O)N1CCC(=C2c3ccc(Cl)cc3CCc3cccnc32)CC1,> 80,–
CC(C)OC(=O)N1CCC(=C2c3ccc(Cl)cc3CCc3cccnc32)CC1,16.8,–
CC(C)[C@@H](N)C(=O)N1CCC(=C2c3ccc(Cl)cc3CCc3cccnc32)CC1,39.1,–
C=CCOC(=O)N1CCC(=C2c3ccc(Cl)cc3CCc3cccnc32)CC1,4.9,–
CCNC(=O)N1CCC(=C2c3ccc(Cl)cc3CCc3cccnc32)CC1,35,–
